Among the test systems are HCC-2998 colon; LOX IMVI melanoma; MCF7 breast; OVCAR-4 ovarian; OVCAR-5 ovarian; OVCAR-8 ovarian; PC-3 prostate; SF-539 CNS; SK-MEL-2 melanoma; DU-145 prostate.
What all share (assay): NCI anticancer screen, dose series, 48 h

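Five concentrations, 48 hours, 96-well plates. GI50 is the concentration that inhibits growth by half. TGI denotes the concentration required for complete inhibition of growth.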

Consider `CCc1n[nH]c(=O)n1CCCCCCCCCCCCn1c(CC)n[nH]c1=O`, for which the TGI is over 100 µM with HCC-2998 colon; 99 µM in the test on LOX IMVI melanoma; over 100 µM in the test with MCF7 breast; over 100 µM with OVCAR-4 ovarian; over 100 µM in the test with OVCAR-5 ovarian; over 100 µM in the test on OVCAR-8 ovarian. The TGI with PC-3 prostate, with SF-539 CNS and with SK-MEL-2 melanoma was over 100 µM each time.

Turning to `COc1cc2c(c(O)c1O)C(=O)C1CCC(=O)N1C2c1cccc2ccccc12` (configuration not stated), the TGI with DU-145 prostate, in the test with MCF7 breast, in the test on OVCAR-4 ovarian, in the test on OVCAR-5 ovarian, in the test with OVCAR-8 ovarian and in the test on PC-3 prostate was over 50 µM in each case. In addition, the TGI in the test with SF-539 CNS and with SK-MEL-2 melanoma was over 50 µM in each case.

Take `Cc1cc([NH-])c([NH-])cc1C.[Cl][Pt+2][Cl]`: the GI50 was over 44.8 µM in the test on HCC-2998 colon; 7.9 µM in the test on LOX IMVI melanoma; 7.37 µM in the test on MCF7 breast; 16.9 µM with OVCAR-4 ovarian; over 59.8 µM with OVCAR-5 ovarian; 16.8 µM with OVCAR-8 ovarian. For the same molecule, the GI50 in the test with SF-539 CNS is 8.5 µM. The TGI in the test on HCC-2998 colon was 99.1 µM; in the test on LOX IMVI melanoma, 17.6 µM; in the test with MCF7 breast, 25.2 µM; with OVCAR-4 ovarian, 31.7 µM; with OVCAR-5 ovarian, over 83.5 µM; with OVCAR-8 ovarian, over 55.5 µM. Besides, the TGI in the test with SF-539 CNS was over 31.6 µM.

As to `Cc1ccc(C)c(NC(=O)C(=O)C(C(=O)c2ccc3ccccc3c2)C2OC(=O)c3ccccc32)c1` (configuration not stated), the TGI in the test on HCC-2998 colon was 28.7 µM; in the test with LOX IMVI melanoma, 35.1 µM; in the test with OVCAR-4 ovarian, over 100 µM; with OVCAR-5 ovarian, 42.5 µM; in the test on OVCAR-8 ovarian, 20.3 µM; in the test with SF-539 CNS, 17.4 µM. This molecule also registered a TGI in the test on SK-MEL-2 melanoma of 44.7 µM.

For `CCCCCOc1ccc(C=Nc2ccc(CCc3ccc(N=Cc4ccc(OCCCCC)cc4)cc3)cc2)cc1`, the TGI with HCC-2998 colon, in the test with LOX IMVI melanoma, in the test on MCF7 breast, in the test on OVCAR-4 ovarian, with OVCAR-5 ovarian and in the test on OVCAR-8 ovarian was over 100 µM each time. Besides, the TGI with SF-539 CNS and with SK-MEL-2 melanoma was over 100 µM each time.

Take `C[C@@]1(O)C2CC3CC1(c1ccccc1)CC(/C3=N/O)/C2=N\O` (some centres not stated): the TGI with DU-145 prostate, with HCC-2998 colon, in the test with LOX IMVI melanoma, in the test with OVCAR-4 ovarian, with OVCAR-5 ovarian and in the test on OVCAR-8 ovarian was over 100 µM in each case. For the same molecule, the TGI with PC-3 prostate, in the test with SF-539 CNS and with SK-MEL-2 melanoma was over 100 µM each time.

For the molecule `CSc1ncc2c(n1)C(C#N)C1Sc3ccccc3N1C2=O` (configuration not stated), the TGI in the test with DU-145 prostate, in the test on LOX IMVI melanoma, in the test with OVCAR-4 ovarian, in the test on OVCAR-5 ovarian, with OVCAR-8 ovarian and in the test with SF-539 CNS was over 100 µM throughout.

Turning to `CCOC(=O)C(C#N)(Cc1c[nH]c2ccccc12)NC(C)=O` (configuration not stated), the TGI with HCC-2998 colon, with LOX IMVI melanoma, with OVCAR-4 ovarian, in the test on OVCAR-5 ovarian, with OVCAR-8 ovarian and in the test on SK-MEL-2 melanoma was over 100 µM throughout.

As for `CC1=NNC(=O)C1C1C(=O)NN=C(c2c[nH]c3ccccc23)C1Br` (configuration not stated), the TGI in the test with DU-145 prostate, in the test on LOX IMVI melanoma, in the test with OVCAR-5 ovarian, with OVCAR-8 ovarian, with PC-3 prostate and with SF-539 CNS was over 100 µM each time. This molecule returned a TGI in the test with SK-MEL-2 melanoma of 84.8 µM.

Turning to `CNC(C)(C)Cc1ccc(Cl)cc1`, the TGI with HCC-2998 colon, in the test with LOX IMVI melanoma, in the test with OVCAR-4 ovarian, in the test on OVCAR-8 ovarian, with SF-539 CNS and in the test on SK-MEL-2 melanoma was over 100 µM in each case.

With `Cc1ccc2c(c1)-c1nc(N)c(C#N)c(-c3ccc(Cl)cc3)c1CCS2(=O)=O`, the TGI in the test on DU-145 prostate, in the test with HCC-2998 colon, in the test on LOX IMVI melanoma, with OVCAR-4 ovarian, in the test on OVCAR-8 ovarian and in the test with PC-3 prostate was over 100 µM in each case. This molecule also gave a TGI in the test with SK-MEL-2 melanoma of over 100 µM.

On to `c1ccc(-c2csc3c4ccccc4c4ccccc4[n+]23)cc1`, for which the TGI with HCC-2998 colon is 13 µM; in the test with LOX IMVI melanoma, 16.9 µM; in the test on OVCAR-4 ovarian, 18.3 µM; in the test with OVCAR-5 ovarian it was 35.8 µM; with OVCAR-8 ovarian, 17.9 µM; with SF-539 CNS, 14.8 µM. In the test on SK-MEL-2 melanoma, the TGI was determined as 7.71 µM.

Turning to `CCNCCNC(=O)c1ccc(I)cc1`, the TGI with HCC-2998 colon, in the test with LOX IMVI melanoma, in the test on MCF7 breast, in the test on OVCAR-4 ovarian, in the test on OVCAR-5 ovarian and with OVCAR-8 ovarian was over 100 µM each time. Further, the TGI in the test on PC-3 prostate and in the test with SF-539 CNS was over 100 µM in each case.

Turning to `C1=C(c2ccccc2)SC(N2CCCCC2)S1` (configuration not stated), the TGI in the test with LOX IMVI melanoma, with OVCAR-4 ovarian, in the test on OVCAR-5 ovarian, with SF-539 CNS and with SK-MEL-2 melanoma was over 100 µM throughout.
